Assay: Related substance A content of the trimebutine maleate drug substance used
Format: physicochemical
Conditions: drug substance used in this study

With `CCC(COC(=O)c1cc(OC)c(OC)c(OC)c1)(c1ccccc1)N(C)C` (stereo not shown) [トリメブチンマレイン酸塩] as the compound, how does the “content of related substance A in the trimebutine maleate drug substance” value read?
The value was 0.06%.
